SMILES strings stand for the structures.

From patent US12297196B2, “Condensed bicyclic heterocyclic derivatives as pest control agents” (Bayer Aktiengesellschaft, priority 2019, dated 2025) come the findings set out here.

Common to all, as to format: in vivo
One experiment relates to Diabrotica balteata. As to the kind of experiment: Diabrotica balteata spray test. Conditions: topical, 168 h, 100 g/ha (=32 μg/cavity), after 7 days, sprayed germinated wheat grains, beetle larvae, read-out: efficacy in %. As for the experimental part:
Diabrotica balteata—Spray Test
(§1) • Solvent: 78 parts by weight of acetone • 1.5 parts by weight of dimethylformamide • Emulsifier: alkylaryl polyglycol ether
(§2) To produce a suitable active compound formulation, 1 part by weight of active compound is dissolved using the stated parts by weight of solvent and made up with water containing an emulsifier concentration of 1000 ppm until the desired concentration is attained. To produce further test concentrations, the formulation is diluted with emulsifier-containing water.
Pre-swollen wheat grains (Triticum aestivum) are incubated in a multiwell plate filled with agar and a little water for one day (5 seed grains per cavity). The germinated wheat grains are sprayed with an active compound formulation of the desired concentration. Subsequently, each cavity is infected with 10−20 beetle larvae of Diabrotica balteata.
After 7 days, the efficacy in % is determined. 100% means that all wheat plants have grown as in the untreated, uninfected control; 0% means that no wheat plant has grown.

Experiment [1] concerns fall armyworm (Spodoptera frugiperda). As to the kind of experiment: Spodoptera frugiperda spray test. Conditions: foliar, 168 h, after 7 days, corn leaf disks, caterpillars, read-out: efficacy in %. How it is done:
Spodoptera Fruaiperda—Spray Test
• Solvent: 78.0 parts by weight of acetone • 1.5 parts by weight of dimethylformamide • Emulsifier: alkylaryl polyglycol ether
as §2
Leaf disks of corn (Zea mays) are sprayed with an active compound formulation of the desired concentration and, after drying, populated with caterpillars of the fall armyworm (Spodoptera frugiperda).
After 7 days, the efficacy in % is determined. 100% means that all the caterpillars have been killed; 0% means that no caterpillar has been killed.

Experiment [2] has as its system green peach aphid (Myzus persicae). In words: Myzus persicae spray test. As to conditions: foliar, 120 h, after 5 days, Chinese cabbage leaf disks, read-out: efficacy in %. How it is done: Myzus Persicae—Spray Test
as §1, §2
Disks of Chinese cabbage leaves (Brassica pekinensis) infested by all stages of the green peach aphid (Myzus persicae) are sprayed with an active compound formulation of the desired concentration.
After 5 days, the efficacy in % is determined. 100% means that all the aphids have been killed; 0% means that no aphids have been killed.

Experiment [3] deals with green peach aphids (Myzus persicae). In words: Myzus persicae oral test. Conditions: 120 h, after 5 days, read-out: efficacy in %. How it is done: Myzus Persicae—Oral Test • Solvent: 100 parts by weight of acetone To produce a suitable active compound formulation, 1 part by weight of active compound is dissolved using the specified parts by weight of solvent and made up with water until the desired concentration is attained. 50 μl of the active compound preparation are transferred into microtitre plates and made up to a final volume of 200 μl with 150 μl of IPL41 insect medium (33%+15% sugar). Subsequently, the plates are sealed with parafilm, which a mixed population of green peach aphids (Myzus persicae) within a second microtitre plate is able to puncture and imbibe the solution through. After 5 days, the efficacy in % is determined. 100% means that all the aphids have been killed; 0% means that no aphids have been killed.

As for `CCS(=O)(=O)c1c(-c2nc3cc(C(F)(F)C(F)(F)F)ccc3o2)ncc2cc(C3(C#N)CC3)ccc12` [Example I-3], the pest or weed control at 100 g/ha (in the experiment on Diabrotica balteata; in experiment [1]) was 100% throughout.
Turning to `CCS(=O)(=O)c1c(-c2nc3cc(OC(F)(F)F)ccc3n2C)ncc2cc(C3(C#N)CC3)ccc12` [Example I-12], the pest or weed control at 100 g/ha (in the experiment with Diabrotica balteata; in experiment [2]; in experiment [1]) was 100% in each case. Moreover, the pest or weed control at 0.8 ppm in experiment [3] came out at 90%. Further, in experiment [3], the pest or weed control at 4 ppm was determined as 100%.
As for `CCS(=O)(=O)c1c(-c2nc3cc(C(F)(F)C(F)(F)F)ncc3n2C)ncc2cc(C3(C#N)CC3)ccc12` [Example I-13], the pest or weed control at 100 g/ha (with Diabrotica balteata; in experiment [2]; in experiment [1]) was 100% each time. Besides, the pest or weed control at 0.8 ppm in experiment [3] was 100%. The pest or weed control at 4 ppm in experiment [3] came out at 100%.
As for `CCS(=O)(=O)c1c(-c2nc3cc(OC(F)(F)C(F)(F)F)cnc3n2C)ncc2cc(C3(C#N)CC3)ccc12` [Example I-5], the results for the pest or weed control at 100 g/ha in experiment [2] and in experiment [1] were 90% and 100%, respectively. Further, the pest or weed control at 4 ppm in experiment [3] was 100%.
With `CCS(=O)(=O)c1c(-c2nc3cc(C(F)(F)F)ncc3n2C)ncc2cc(C3(C#N)CC3)ccc12` [Example I-2], the pest or weed control at 100 g/ha is 100% with Diabrotica balteata, 90% in experiment [2] and 100% in experiment [1]. Besides, the pest or weed control at 0.8 ppm in experiment [3] came out at 90%. The pest or weed control at 4 ppm in experiment [3] amounted to 100%.
For `CCS(=O)(=O)c1c(-c2nc3cc(C(F)(F)F)ccc3n2C)ncc2cc(C3(C#N)CC3)ccc12` [Example I-6], the pest or weed control at 100 g/ha with Diabrotica balteata was 100%; in experiment [2], 90%; in experiment [1] it was 100%. The pest or weed control at 4 ppm in experiment [3] was 100%.
Turning to `CCS(=O)(=O)c1c(-c2nc3cc(OC(F)(F)F)cnc3n2C)ncc2cc(C3(C#N)CC3)ccc12` [Example I-11], the pest or weed control at 100 g/ha (in the experiment on Diabrotica balteata; in experiment [2]; in experiment [1]) was 100% throughout. Further, the pest or weed control at 0.8 ppm in experiment [3] came out at 100%. In addition, the pest or weed control at 4 ppm in experiment [3] was 100%.
For `CCS(=O)(=O)c1c(-c2nc3cc(C(F)(F)C(F)F)cnc3n2C)ncc2cc(C3(C#N)CC3)ccc12` [Example I-14], the pest or weed control at 100 g/ha (in the experiment on Diabrotica balteata; in experiment [2]; in experiment [1]) was 100% throughout. Further, the pest or weed control at 0.8 ppm in experiment [3] is 100%. The pest or weed control at 4 ppm in experiment [3] was 100%.
As for `CCS(=O)(=O)c1c(-c2nc3cc(C(F)(F)C(F)(F)F)cnc3n2C)ncc2cc(C3(C#N)CC3)ccc12` [Example I-4], the pest or weed control at 100 g/ha (with Diabrotica balteata; in experiment [2]; in experiment [1]) was 100% throughout. For the same molecule, the pest or weed control at 0.8 ppm in experiment [3] was 100%. The pest or weed control at 4 ppm in experiment [3] is 100%.
On to `CCS(=O)(=O)c1c(-c2nc3cc(C(F)(F)C(F)(F)F)nnc3n2C)ncc2cc(C3(C#N)CC3)ccc12` [Example I-10], for which the pest or weed control at 100 g/ha (in the experiment with Diabrotica balteata; in experiment [2]; in experiment [1]) was 100% throughout. Further, in experiment [3], the pest or weed control at 0.8 ppm was found to be 90%.
As to `CCS(=O)(=O)c1c(-c2nc3cc(S(=O)(=O)C(F)(F)F)ccc3o2)ncc2cc(C3(C#N)CC3)ccc12` [Example I-7], the pest or weed control at 100 g/ha (in the experiment with Diabrotica balteata; in experiment [1]) was 100% throughout.
Turning to `CCS(=O)(=O)c1c(-c2nc3cc(OC(F)(F)F)ccc3o2)ncc2cc(C3(C#N)CC3)ccc12` [Example I-8], the pest or weed control at 100 g/ha (in the experiment on Diabrotica balteata; in experiment [1]) was 100% each time.
